Experiments:
[1] = Example 2: methadone in exhaled breath collected on Empore C18 disc, UPLC-MS/MS; details: all 13 studied patients
[2] = Example 1: amphetamine and methamphetamine in expired air collected on SPE cartridge, SRM UPLC-MS/MS; details: all 12 studied patients

SMILES	detection in the sampled exhaled breath [1]	detection in the expired air sample [2]
CCC(=O)C(CC(C)N(C)C)(c1ccccc1)c1ccccc1 (centres unmarked) [methadone]	detected	–
CN[C@@H](C)Cc1ccccc1 [methamphetamine]	–	detected

Source: US11567011B2, “System and method for drug detection in exhaled breath” (Sensa Bues AB, priority 2009, dated 2023)
